In assay [1] the target is rat lens AR (aldose reductase) (Rattus norvegicus, UniProt P07943). Description: AR inhibition assay with rat lens AR homogenate.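 Further: supernatant of Sprague–Dawley rat lens extract as enzyme, DL-glyceraldehyde substrate, absorbance at 340 nm followed over 6 min, DMSO up to 0.5% v/v.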
Protocol: The eyes of 10-week Sprague–Dawley rats (250–280 g) were removed and kept at −70 °C before use. Then, the lenses were removed from the eyes using surgical scissors and tweezers, ground in a mortar (precooled at −70 °C) and extracted using 0.1 M phosphate-buffered saline (PBS) of pH 6.2 (approximately 0.5 mL of buffer per one rat lens). The extract solution was further centrifuged at 10,000× g for 30 min at 4 °C (Mega 17R, Hanil Science Industry, Gimpo, Korea), and the supernatant was collected and used as rat lens AR homogenate.
For AR inhibition assay, 100 µL of 0.1 M PBS (pH 7.0), 20 µL of AR homogenate, 20 µL of NADPH (cofactor, 2.4 mM in 0.1 M PBS of pH 8.0), 20 µL of the sample (in a mixture of water and DMSO; extracts and fractions 62.5–100 µg/mL, compounds 3.9–500 µM), and 20 µL of ammonium sulfate solution (4 M in 0.1 M PBS of pH 7.0) were pipetted into a 96-well plate. Then, 20 µL of the substrate (in 0.1 M PBS of pH 7.0; 25 mM of DL-glyceraldehyde dimmer) was added, and the absorbance (340 nm) was measured for 6 min using an Epoch microplate spectrophotometer (BioTek Instruments, Winooski, VT, USA). […] DMSO was used to prepare samples, but its ratio was kept within 0.5% (v/v) of the reaction system.
The half-maximal inhibitory concentrations (IC50 values) of samples against DPPH radicals and AR were calculated via linear regression and logarithmic analysis, respectively.
The nature of assay [2]: DPPH radical scavenging assay (antioxidant). Conditions: for IC50: pure compounds. The procedure: The antioxidant potential of the samples was evaluated using DPPH radical scavenging assay, as reported previously. In brief, 180 μL of freshly prepared DPPH solution (0.32 mM in MeOH) was mixed with 20 μL of the sample (in 50% MeOH, extracts and fractions, 50–400 µg/mL; components, 125–500 µM) in a 96-well plate and incubated for 20 min in the dark at 25 °C. Then, the absorbance (570 nm) of the reaction solution was measured using an EL800 microplate reader (Bio-Tek Instruments, Winooski, VT, USA). Quercetin was used as a positive control.
(The DPPH test is a chemical assay of radical scavenging.)

[3] abbreviates: read-out: AR Inhibitory Activity Inhibition (%).

Marks after values point to notes of the source that are not given here.

For the compound `O=C(O)/C=C/c1ccc(O)c(O)c1` [Caffeic acid (1), Caffeic acid], the inhibition (commonly the drop in the measured response relative to a control, in per cent) at 12.5 µM in assay [1] (setting [3]) amounted to 12.3 ± 2.09%. Also, the inhibition at 25 µM in assay [1] (setting [3]) worked out at 17.8 ± 0.41%. Also, in assay [1] (setting [3]), the inhibition at 50 µM was found to be 20.3 ± 0.62%. In addition, the entries for the “DPPH Scavenging Activity Inhibition (%)” value in assay [2] (compound concentration 12.5 µM), in assay [2] (compound concentration 25 µM) and in assay [2] (compound concentration 50 µM) were 8.60 ± 0.87%, 20.21 ± 0.58% and 43.33 ± 0.69%, respectively.

Consider `COc1ccc(-c2cc(=O)c3c(O)cc(O)cc3o2)cc1O` [Diosmetin (6), Diosmetin], for which the inhibition at 12.5 µM in assay [1] (setting [3]) came out at 10.5 ± 3.79%. The inhibition at 25 µM in assay [1] (setting [3]) stood at 22 ± 1.25%. Further, the inhibition at 50 µM in assay [1] (setting [3]) came out at 34 ± 1.03%. Further, the “DPPH Scavenging Activity Inhibition (%)” value worked out at 0.14 ± 0.34% in assay [2] (compound concentration 12.5 µM), 0.46 ± 0.35% in assay [2] (compound concentration 25 µM) and 3.18 ± 0.42% in assay [2] (compound concentration 50 µM).

As to `COc1ccc(-c2cc(=O)c3c(O)cc(O[C@@H]4O[C@H](CO[C@@H]5O[C@@H](C)[C@H](O)[C@@H](O)[C@H]5O)[C@@H](O)[C@H](O)[C@H]4O)cc3o2)cc1O` [Diosmin (4), Diosmin], in assay [1] (setting [3]), the inhibition at 12.5 µM worked out at 8.91 ± 0.62%, the inhibition at 25 µM came out at 11.2 ± 0.82% and the inhibition at 50 µM was found to be 12.3 ± 0.62%. Besides, the “DPPH Scavenging Activity Inhibition (%)” value in assay [2] (compound concentration 12.5 µM) came out at 0.31 ± 0.69%. For the same compound, the “DPPH Scavenging Activity Inhibition (%)” value in assay [2] (compound concentration 25 µM) is recorded as 0.61 ± 1.08%. Further, the “DPPH Scavenging Activity Inhibition (%)” value in assay [2] (compound concentration 50 µM) is given as 2.61 ± 0.67%.

As to `CCOC(=O)[C@@H](Cc1ccc(O)c(O)c1)OC(=O)/C=C/c1ccc(O)c(O)c1` [Ethyl rosmarinate (S1), Ethyl rosmarinate], the figures for the IC50 in assay [1] and in assay [2] (linear regression) were 1.02 ± 0.07 µM and 30.54 ± 0.13 µM, respectively. Besides, in assay [1] (setting [3]), the inhibition at 0.39 µM was determined as 27.4 ± 2.66%. Besides, in assay [1] (setting [3]), the inhibition at 0.78 µM was 43.2 ± 0.62%. Further, the inhibition at 1.56 µM in assay [1] (setting [3]) amounted to 60.5 ± 2.05%. Moreover, the “DPPH Scavenging Activity Inhibition (%)” value in assay [2] (compound concentration 12.5 µM) turned out to be 22.02 ± 0.35%; in assay [2] (compound concentration 25 µM), 38.38 ± 0.53%; in assay [2] (compound concentration 50 µM), 83.09 ± 0.21%.

Regarding `COc1ccc([C@@H]2CC(=O)c3c(O)cc(O[C@@H]4O[C@H](CO[C@@H]5O[C@@H](C)[C@H](O)[C@@H](O)[C@H]5O)[C@@H](O)[C@H](O)[C@H]4O)cc3O2)cc1O` [Hesperidin (2), Hesperidin], in assay [1] (setting [3]), the inhibition at 12.5 µM came out at 1.78 ± 0.33%, the inhibition at 25 µM came out at 10 ± 1.22% and the inhibition at 50 µM was 11.6 ± 0.41%. The “DPPH Scavenging Activity Inhibition (%)” value in assay [2] (compound concentration 12.5 µM) is recorded as 1.20 ± 1.18%. The “DPPH Scavenging Activity Inhibition (%)” value in assay [2] (compound concentration 25 µM) turned out to be 2.57 ± 0.77%. For the same compound, the “DPPH Scavenging Activity Inhibition (%)” value in assay [2] (compound concentration 50 µM) is 3.37 ± 1.32%.

Consider `COC(=O)[C@@H](Cc1ccc(O)c(O)c1)OC(=O)/C=C/c1ccc(O)c(O)c1` [Methyl rosmarinate (5), Methyl rosmarinate], for which the IC50 (in general, the concentration that inhibits the measured activity by half) in assay [1] stood at 1.17 ± 0.08 µM; in assay [2] (linear regression) it was 33.01 ± 0.27 µM. In addition, in assay [1] (setting [3]), the inhibition at 0.39 µM amounted to 22.1 ± 0.85%. Moreover, the inhibition at 0.78 µM in assay [1] (setting [3]) stood at 40.9 ± 3.47%. Further, in assay [1] (setting [3]), the inhibition at 1.56 µM worked out at 56.7 ± 0.85%. The figures for the “DPPH Scavenging Activity Inhibition (%)” value in assay [2] (compound concentration 12.5 µM), in assay [2] (compound concentration 25 µM) and in assay [2] (compound concentration 50 µM) were 18.68 ± 0.63%, 37.59 ± 0.60% and 76.21 ± 1.04%, respectively.

For the compound `CCCOC(=O)[C@@H](Cc1ccc(O)c(O)c1)OC(=O)/C=C/c1ccc(O)c(O)c1` [Propyl rosmarinate (S2), Propyl rosmarinate], the 50% inhibitory concentration (IC50) is 1.29 ± 0.01 µM in assay [1] and 32.7 ± 0.08 µM in assay [2] (linear regression). Besides, the inhibition at 0.39 µM in assay [1] (setting [3]) was 12.3 ± 1.84%. Moreover, in assay [1] (setting [3]), the inhibition at 0.78 µM was 37.9 ± 1.25%. The inhibition at 1.56 µM in assay [1] (setting [3]) stood at 53.67 ± 0.41%. For the same compound, the entries for the “DPPH Scavenging Activity Inhibition (%)” value in assay [2] (compound concentration 12.5 µM), in assay [2] (compound concentration 25 µM) and in assay [2] (compound concentration 50 µM) were 17.68 ± 0.83%, 37.15 ± 0.29% and 77.82 ± 0.46%, respectively.

Take `O=c1c(O)c(-c2ccc(O)c(O)c2)oc2cc(O)cc(O)c12` [Quercetin, quercetin, reference compound]: in assay [1] (setting [3]), the inhibition at 2.5 µg/mL was found to be 38.7 ± 0.91%, the inhibition at 5 µg/mL was 55.3 ± 1.58%, the inhibition at 6.25 µM came out at 31.5 ± 1.7% and the inhibition at 10 µg/mL was determined as 64 ± 0.88%. Moreover, in assay [1] (setting [3]), the inhibition at 12.5 µM was 45 ± 1.65% and the inhibition at 25 µM came to 65.1 ± 1.47%. In addition, the “DPPH Scavenging Activity Inhibition (%)” value in assay [2] (compound concentration 12.5 µM) was 22.31 ± 0.92%. The “DPPH Scavenging Activity Inhibition (%)” value in assay [2] (compound concentration 25 µM) is 40.39 ± 0.82%. Besides, in assay [2] (compound concentration 50 µM), the “DPPH Scavenging Activity Inhibition (%)” value was 72.32 ± 0.42%. Besides, the “DPPH Scavenging Activity IC50” value in assay [2] (extracts, fractions and quercetin, linear regression) is 10.46 ± 0.34 ^e µg/mL. In assay [2] (linear regression), this compound returned an IC50 of 33.19 ± 0.31 µM. In assay [2] (sample concentration 5 µg/mL), the “DPPH Scavenging Activity Inhibition (%)” value is given as 28.65 ± 0.38%. For the same compound, in assay [2] (sample concentration 10 µg/mL), the “DPPH Scavenging Activity Inhibition (%)” value came to 54.43 ± 2.07%. Moreover, the “DPPH Scavenging Activity Inhibition (%)” value in assay [2] (sample concentration 20 µg/mL) is listed as 84.78 ± 2.36%.

For the compound `O=C(/C=C/c1ccc(O)c(O)c1)O[C@H](Cc1ccc(O)c(O)c1)C(=O)O` [Rosmarinic acid (3), Rosmarinic acid], the half-maximal inhibitory concentration (IC50) in assay [1] worked out at 4.08 ± 0.11 µM; in assay [2] (linear regression) it was 36.91 ± 0.35 µM. In addition, in assay [1] (setting [3]), the inhibition at 3.125 µM is 42.6 ± 1.63%. Besides, the inhibition at 6.25 µM in assay [1] (setting [3]) was 62.9 ± 2.1%. Also, the inhibition at 12.5 µM in assay [1] (setting [3]) is 76 ± 1.03%. Besides, the entries for the “DPPH Scavenging Activity Inhibition (%)” value in assay [2] (compound concentration 12.5 µM), in assay [2] (compound concentration 25 µM) and in assay [2] (compound concentration 50 µM) were 19.05 ± 1.33%, 34.35 ± 0.69% and 67.04 ± 0.64%, respectively.

For `CCCCOC(=O)[C@@H](Cc1ccc(O)c(O)c1)OC(=O)/C=C/c1ccc(O)c(O)c1` [n-Butyl rosmarinate (7), n-Butyl rosmarinate], the IC50 in assay [1] turned out to be 1.54 ± 0.04 µM; in assay [2] (linear regression) it was 30.02 ± 0.1 µM. Moreover, the inhibition at 0.39 µM in assay [1] (setting [3]) stood at 13.1 ± 0.47%. Also, the inhibition at 0.78 µM in assay [1] (setting [3]) came to 28.6 ± 0.47%. In assay [1] (setting [3]), the inhibition at 1.56 µM stood at 51.4 ± 0.94%. Besides, the “DPPH Scavenging Activity Inhibition (%)” value is 19.98 ± 0.29% in assay [2] (compound concentration 12.5 µM), 40.73 ± 1.21% in assay [2] (compound concentration 25 µM) and 84.85 ± 0.81% in assay [2] (compound concentration 50 µM).

Source of the values: publication PMC8707451, “Separation and Identification of Antioxidants and Aldose Reductase Inhibitors in Lepechinia meyenii (Walp.) Epling” (Plants, 2021).
